Measured values as given in US8129527B2, “Analogs of dehydrophenylahistins and their therapeutic use” (Nereus Pharmacuticals, Inc., priority 2006, dated 2012).
Values after ≈ are worked out from the molar mass of the structure shown. Read-outs that look alike come from different tables or passages of the source. Marks after values point to notes of the source that are not given here.

Key:
MAP-rich microtubules = assay: Microtubule mean length distributions, transmission electron microscopy; type: biochemical, bovine; conditions: in words
Protocol: Transmission electron microscopy was used to determine the mean length distribution of microtubules in the absence or presence of tested agent. At 75 minutes and prior to sedimentation, 10 μl aliquots from the polymer mass experiments were fixed by dilution into 290 μl PEM100-buffered 0.2% glutaraldehyde. Thirty microliters of fixed sample was settled onto formvar-coated 150 ICG mesh electron microscope grids for 90 seconds. Excess sample was wicked off with Whatman filter paper. Thirty microliters of cytochrome C (1 mg/ml) was applied for 30 seconds to enhance protofilament resolution and facilitate negative staining. Uranyl acetate (1.5%) was applied for 20 seconds and the excess was wicked off Grids were viewed in a Jeol electron microscope-1200 EX11 at 2000× and 30,000× magnification. The Zeiss MOPIII was used to determine microtubule length distributions and mean lengths for at least 100 microtubules per sample.

[1] = system: MCF7 human breast carcinoma cells; assay: Mitotic progression (mitotic index); type: cell-based; conditions: 20 hours, read-out: Mitotic block Ave. IC50 ± sd
Protocol: The fraction of cells in mitosis at a given drug concentration (mitotic index) was determined in the breast cancer cell line MCF7. Cells were plated at a density of 3×10^4 cells/ml in six-well plates. After 24 hours, cells were incubated in the absence or presence of drug over a range of concentrations (1 nM to 1 μM) for 20 hours. […] Cells were fixed with 10% formalin in PBS overnight at 37° C., permeabilized in methanol for 10 minutes, and stained with 4,6-diamidino-phenylindole (DAPI) to visualize nuclei. Stained cells were spread on coverslips in Vectashield mounting media (Burlingame, Calif.) and sealed onto slides with nail polish. Fluorescence microscopy was used to determine mitotic indices.

[2] = system: MCF7 cells, GFP-alpha-tubulin; assay: Analysis of microtubule dynamics, time-lapse microscopy; type: cell-based, human
[3] = Tumor panel screen cytotoxicity (Example 10A); type: cell-based, human; conditions: human, CCD-27sk normal fibroblast cells; CCD-27sk Fibroblast; maximum cytotoxic effect
Description: (§1) Cells were maintained at subconfluent densities in their respective culture media.

[4] = system: B16-F10 (murine melanoma); assay: Tumor panel screen cytotoxicity (Example 10A); type: cell-based
Description: as §1

[5] = system: CCD-27sk (normal human fibroblast); assay: Tumor panel screen cytotoxicity (Example 10A); type: cell-based; conditions: Homo sapiens; CCD-27sk Fibroblast
Description: as §1

HT29 (human colon tumor) = assay: Tumor panel screen cytotoxicity (Example 10A); type: cell-based; conditions: HT-29 Colon
Description: as §1

[6] = system: MDA-MB-231 (human breast tumor); assay: Tumor panel screen cytotoxicity (Example 10A); type: cell-based; conditions: MDA-MB-231 Breast
Description: as §1

[7] = system: NCI-H292 (human non-small cell lung tumor); assay: Tumor panel screen cytotoxicity (Example 10A); type: cell-based
Description: as §1

[8] = system: OVCAR-3 (human ovarian tumor); assay: Tumor panel screen cytotoxicity (Example 10A); type: cell-based; conditions: OVCAR-3 Ovary
Description: as §1

[9] = system: PC3 (human prostate tumor); assay: Tumor panel screen cytotoxicity (Example 10A); type: cell-based; conditions: PC-3 Prostate
Description: as §1

[10] = system: MES-SA (Taxol Sensitive) human uterine sarcoma; assay: Drug resistant cell line pair, cytotoxicity (Example 10B); type: cell-based
Description: (§2) 1) Human Uterine Sarcoma Tumor Cell Line Pair: MES-SA (Taxol Sensitive) and MES-SA/Dx5 (Taxol Resistant).

[11] = system: MES-SA/Dx5 (Taxol Resistant) human uterine sarcoma; assay: as above; type: cell-based
Description: as §2

[12] = system: HL-60 (Mitoxantrone-Sensitive) human acute promyelocytic leukemia; assay: as above; type: cell-based; conditions: HL-60 Sensitive
Description: (§3) 2) Human Acute Promyelocytic Leukemia Cell Line Pair: HL-60 (Mitoxantrone-Sensitive) and HL-60/MX-2 (Mitoxantrone-Resistant)

[13] = system: HL-60/MX-2 (Mitoxantrone-Resistant); assay: as above; type: cell-based, human; conditions: Homo sapiens, HL60/MX2; HL-60 Resistant (HL-60/MX-2)
Description: as §3

HT-29 human colon tumor = assay: HT-29 Human Colon Tumor Xenograft Model; type: in vivo
Protocol: (§4) Selected novel compounds were administered as monotherapy via the intraperitoneal (i.p.) route at the doses indicated for the individual study; for the combination studies the selected reference chemotherapy agents were injected 15-30 min prior to the compound.
(§5) Saline dilutions are used to achieve the injection concentrations used for the reference compounds.
Animals were implanted subcutaneously (s.c.) by trocar with fragments of HT-29 tumors harvested from s.c. growing tumors in nude mice hosts. When the tumor size reached 5 mm×5 mm (about 10-17 days) the animals were matched into treatment and control groups. Mice were weighed twice weekly and tumor measurements were obtained using calipers twice weekly, starting on Day 1. The tumor measurements were converted to estimated mg tumor weight using the formula (W^2×L)/2. When the estimated tumor weight of the control group reached an average of 1000 mg the mice were weighed, sacrificed and the tumor removed.

MCF-7 human breast tumor = assay: MCF-7 Human Breast Tumor Xenograft Model; type: in vivo, nude mice; conditions: in combination with taxotere
Protocol: Animals used were (exceptions are indicated for individual studies): female nude mice (nu/nu) between 5 and 6 weeks of age (˜20 g, Harlan); group size was 9-10 mice per group unless otherwise indicated.
as §4, §5
Female nude mice (˜20 g) were implanted s.c. with 21-day release estrogen (0.25 mg) pellets 24 hours prior to the s.c. implantation with MCF-7 tumor fragments (harvested from s.c. tumors in nude mice hosts). The study then proceeded as described for the HT-29 model, using taxotere as the standard chemotherapy agent.
In this model unless otherwise noted for the individual study, the novel compounds were injected via the intraperitoneal route daily on Days 1-5, inclusive (qdx5); taxotere was administered intravenously on Days 1, 3 and 5 (qodx3).
The doses of the compounds were administered on Days 1, 2, 3, 4, and 7; Taxotere was administered on Days 1, 3 and 7.

Aspergillus fumigatus = assay: Antifungal susceptibility testing, broth dilution (MIC/MFC); type: cell-based; conditions: Aspergillus fumigatus; for MIC: read-out: MIC
In short: (§6)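 Tested against two isolates per species (one for C. glabrata). After MIC, fungicidal concentration determined by plating 0.1 μl from MIC and each higher concentration.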

Candida albicans = assay: as above; type: cell-based; conditions: Candida albicans; C. albicans 90028; read-out: MIC
In short: as §6

Candida glabrata = assay: as above; type: cell-based; conditions: Nakaseomyces glabratus; C. glabrata; read-out: MIC
In short: as §6

HuVEC = assay: Action on microtubule function, α-tubulin staining; conditions: 2 μM, thirty minutes exposure
[14] = Table 28, concentration effecting 25% of the maximal mitotic block
[15] = Table 29, concentration effecting 50% of the maximal mitotic block

## COc1ccc(/C=C\c2cc(OC)c(OC)c(OC)c2)cc1O [CA4, Combretastatin A4]
MAP-rich microtubules
  MT nucleation: did not affect MT nucleation
[1]
  IC50: 5.4 ± 0.7 nM
[2]; [14]
  % time spent, Attenuation: 39.50%
  % time spent, Growth: 35.31%
  % time spent, Shortening: 25.19%
  Freq. of Catastrophe: 1.52 min⁻¹
  Freq. of Rescue: 1.90 min⁻¹
  Mean duration, Attenuation: 0.45 min
  Mean duration, Growth: 0.27 min
  Mean duration, Shortening: 0.21 min
  Mean rates, Growth: 10.59 μm/min
  Mean rates, Shortening: 40.21 μm/min
[2]; Table 28, dynamicity, concentration effecting 25% of the maximal mitotic block
  Dyn.: 13.87 μm/min
[2]; [15]
  % time spent, Attenuation: 36.23%
  % time spent, Growth: 43.64%
  % time spent, Shortening: 20.13%
  Dynamicity: 10.91 μm/min
  Freq. of Catastrophe: 1.09 min⁻¹
  Freq. of Rescue: 2.79 min⁻¹
  Mean duration, Attenuation: 0.55 min
  Mean duration, Growth: 0.33 min
  Mean duration, Shortening: 0.22 min
  Mean rates, Growth: 11.21 μm/min
  Mean rates, Shortening: 29.88 μm/min
[2]; concentrations effecting 25% or 50% of maximal mitotic block
  MT dynamic instability: did not have a measurable effect on MT dynamic instability

## CC(C)(C)c1[nH]cnc1/C=C1\NC(=O)[C@H](Cc2ccccc2)NC1=O [t-butyl-phenylahistin]
[3]
  cytotoxicity at 48 h: 45%
[4]; Mus musculus
  IC50: 736 nM
[4]; maximum cytotoxic effect
  % Cytotoxicity Mean: 74%
[5]
  IC50: > 20 µM
HT29 (human colon tumor); maximum cytotoxic effect
  % Cytotoxicity Mean: 88%
HT29 (human colon tumor); Homo sapiens
  IC50: 420 nM
[6]; Homo sapiens
  IC50: 387 nM
[6]; maximum cytotoxic effect
  % Cytotoxicity Mean: 65.5%
[7]; Homo sapiens
  IC50: 384 nM
[7]; maximum cytotoxic effect
  % Cytotoxicity Mean: 65%
[8]; Homo sapiens
  IC50: > 20 µM
[8]; maximum cytotoxic effect
  % Cytotoxicity Mean: 37%
[9]; Homo sapiens
  IC50: 174 nM
[9]; maximum cytotoxic effect
  % Cytotoxicity Mean: 59.5%
[10]; Homo sapiens, MES-SA, CsA Pretreat, Studies II-III in separate lines
  IC50: 162 nM
[10]; Homo sapiens, MES-SA, No CsA, Studies I-III in separate lines
  IC50: 144 nM
[10]; No CsA, Studies I-III in separate lines
  IC50: 122 nM
[11]; Homo sapiens, MES-SA/Dx5, MES-SA/DX5 Resistant, CsA Pretreat, Studies II-III in separate lines
  IC50: 622 nM
[11]; Homo sapiens, MES-SA/Dx5, MES-SA/DX5 Resistant, No CsA, Studies I-III in separate lines
  IC50: 825 nM
[11]; MES-SA/DX5 Resistant, No CsA, Studies I-III in separate lines
  IC50: 694 nM
[11]; in words
  potency in the resistant MES-SA/DX5 line vs the sensitive line: only slightly reduced
[12]
  IC50: 255 nM
[13]
  IC50: 175 nM
HT-29 human colon tumor; NPI compound + CPT-11 100 ip qwx3, study and dose as in the line
  Comments (combination with CPT-11): Synergy
HT-29 human colon tumor; Study 2139, monotherapy 30 mg/kg ip q3dx5
  NPI-Compound Result TGI %: No Effect
HT-29 human colon tumor; Study 2139, t-butyl-phenylahistin 30 mg/kg ip q3dx5 + CPT-11 100 ip qwx3
  Combination Results TGI %: 77.7 *, # %
HT-29 human colon tumor; which treatment group exceeds the criterion, NPI compound, CPT-11 100 ip qwx3 or combination, study and dose as in the line
  Exceed NCI Criterion (TGI ≧ 58%): Combination
MCF-7 human breast tumor
  effect on estimated tumor growth: significant potentiation of taxotere
Aspergillus fumigatus; A. fumigatus isolate #1
  MIC: > 16 µg/mL
Aspergillus fumigatus; A. fumigatus isolate #2
  MFC: 0.125 µg/mL (≈ 0.369 µM)
  MIC: < 0.03 µg/mL
Candida albicans
  MIC: > 32 µg/mL
Candida glabrata
  MIC: > 32 µg/mL
HuVEC
  microtubule depolymerization in HuVEC cells: induced microtubule depolymerization
